Source: ChEMBL document CHEMBL1126490, “An unusual oxetane nucleoside as a potent antiviral agent” (1993)
“And” between values parts separate entries of the source, which are not always exact repeats. Equal entries are not always repeated.

Key:
Type in all cases: functional
[1] = test system: Mus musculus; test: Percent survival of mice against Japanese encephalitis virus after 5 mg/Kg peroral administration of the compound.; settings: po
[2] = species on record: Mus musculus; test: Mean survival time of mice against forest virus was determined
[3] = test system: Mus musculus; test: Percent survival of mice against forest virus after 10 mg/Kg peroral administration of compound; settings: po
[4] = test system: Mus musculus; test: Percent survival of mice against forest virus after 5 mg/Kg peroral administration of compound; settings: po
[5] = test system: Mus musculus; test: Percent survival of mice against Japanese encephalitis virus after 10 mg/Kg peroral administration of compound; settings: po
[6] = species on record: Mus musculus; test: Mean survival time of mice against Japanese encephalitis virus was determined

## Nc1ncnc2c1ncn2C1OC2COC2C1O (stereo unspecified)
[1]
  survival at 5 mg/kg: 37%
[2]
  MST: 11.6 days and 11.8 days
[3]
  survival at 10 mg/kg: 50%
[4]
  survival at 5 mg/kg: 37%
[5]
  survival at 10 mg/kg: 67%
[6]
  MST: 10.7 days and 15.5 days
